Results taken from paper PMC7074166, “Screening for Small Molecule Modulators of Trypanosoma brucei Hsp70 Chaperone Activity Based upon Alcyonarian Coral-Derived Natural Products” (Marine Drugs, 2020).
Read-outs that look alike come from different tables or passages of the source.

Tests used:
c-Met kinase = test system: c-Met kinase; design: method as in PMID 23081922; conditions: 10 μM; cited from earlier work
[1] = test system: bloodstream form T. b. brucei parasites; assay: Resazurin-based anti-trypanosomal assay on bloodstream form T. b. brucei parasites; assay type: cell-based, Trypanosoma brucei brucei; conditions: Trypanosoma brucei
Description: Bloodstream form T. b. brucei Lister 927 variant 221 strain parasites were cultured in filter sterilized complete Iscoves Modified Dulbeccos Media (IMDM) based HM1-9 medium (IMDM base powder, […] sodium bicarbonate, 1 mM hypoxanthine, 1 mM sodium pyruvate, 0.16 mM thymidine, 0.05 mM bathocuprone sulphate acid, 10% (v/v) heat inactivated foetal bovine serum, 1.5 mM L-cysteine, 0.2 mM β-mercaptoethanol, pH 7.5) in a humidified chamber at 37 °C with an atmosphere of 5% CO2. Parasite growth was monitored using a Neubauer haemocytometer to count the cell number, after which cells were diluted, according to their density, in the described pre-warmed media.
All compounds of interest were resuspended to stocks of 30 mM in DMSO and stored at −80 °C prior to use in in vitro experiments. For assessment of anti-trypanosomal activity, compounds were added to in vitro cultures of bloodstream form T. b. brucei parasites (1 × 10^5 cells/mL) in 96-well plates at a fixed concentration of 20 μM. After an incubation period of 48 h, the number of parasites surviving drug exposure were determined using a resazurin-based cytotoxicity assay. Resazurin is an oxidation–reduction sensitive dye that is reduced by living cells to resorufin. Resorufin is a fluorophore (Excitation560/Emission590) and thus was quantified in a multi-well fluorescence plate reader. Results are expressed as % parasite viability—the resorufin fluorescence in small molecule-treated wells relative to untreated controls. Assessment of each small molecule was conducted in duplicate, with error bars representing standard deviation (SD). […] The compounds were added to in vitro cultures of bloodstream form T. b. brucei parasites (1 × 10^5 cells/mL) in 96-well plates in a 3-fold dilution series with 100 μM as the highest concentration. After an incubation period of 48 h, the number of parasites surviving drug exposure were determined as previously mentioned. The % parasite viability was determined as previously mentioned. The IC50 (the concentration of compound required to decrease cell viability of T. b. brucei parasites by 50% compared to those grown in the absence of the compound) values for each of the compounds were determined from a dose–response curve by non-linear regression generated using GraphPad Prism® (v. 7.0; San Diego, CA, USA) software. For comparative purposes, pentamidine at a fixed concentration of 1 μM was employed as a drug standard.

TbHsp70 = target: T1, TbHsp70 (Trypanosoma brucei brucei, UniProt P11145); assay: Basal ATPase activity assay, TbHsp70; assay type: biochemical
T1 construct: His-tag; made in house; host or cells: Escherichia coli
Description: (§1) The determination of the ATPase activity of the Hsp70 proteins was performed using the high throughput colorimetric ATPase assay kit (Innova Biosciences, Cambridge, UK). This method enables the quantification of the inorganic phosphate (Pi) released from ATP hydrolysis by an enzyme. Briefly, the molecular chaperones were prepared in ATPase assay buffer (100 mM Tris-HCl, 7.5, 2 mM MgCl2, 50 mM KCl, 0.5 mM DTT) and incubated with ATP (0–2 mM) for 1 h at 37 °C. […] The samples containing Pi hydrolysed from ATP were incubated with the PiColorLock™ solution, which is a malachite green dye solution that in the presence of Pi changes absorbance due to generation of molybdate-phosphate complexes. The absorbance was measured at 595 nm using a Powerwave 96-well plate reader (BioTek Instruments, Inc., Winooski, VT, USA), and absorbance values were converted to phosphate concentrations using a standard curve of absorbance vs. phosphate concentration based on a set of Pi standards provided by the supplier assayed along with the samples. All samples were corrected for spontaneous breakdown of ATP observed in a control experiment in the absence of protein. The trypanosomal and human Hsp70s were used at 0.8 μM, and the J-proteins were used at 0.4 μM. An initial screen of the modulatory effects of the compounds on the ATPase activity of the Hsp70s was conducted using 300 μM of the compounds. […]

TbHsp70.4 = assay: Basal ATPase activity assay, TbHsp70.4; assay type: biochemical, Trypanosoma brucei; conditions: TbHsp70.4, 1 μM
Description: as §1

TbHsp70 / Tbj2 = target: T2, TbHsp70 / Tbj2 (Trypanosoma brucei brucei, UniProt P11145); assay: Tbj2-stimulated ATPase activity assay, TbHsp70; assay type: biochemical; conditions: TbHsp70, 150 μM, Figure 5A
T2 construct: His-tag; made in house; host or cells: Escherichia coli (Tbj2: E. coli BL21 (DE3))
Description: (§2) The determination of the ATPase activity of the Hsp70 proteins was performed using the high throughput colorimetric ATPase assay kit (Innova Biosciences, Cambridge, UK). This method enables the quantification of the inorganic phosphate (Pi) released from ATP hydrolysis by an enzyme. Briefly, the molecular chaperones were prepared in ATPase assay buffer (100 mM Tris-HCl, 7.5, 2 mM MgCl2, 50 mM KCl, 0.5 mM DTT) and incubated with ATP (0–2 mM) for 1 h at 37 °C. […] The samples containing Pi hydrolysed from ATP were incubated with the PiColorLock™ solution, which is a malachite green dye solution that in the presence of Pi changes absorbance due to generation of molybdate-phosphate complexes. The absorbance was measured at 595 nm using a Powerwave 96-well plate reader (BioTek Instruments, Inc., Winooski, VT, USA), and absorbance values were converted to phosphate concentrations using a standard curve of absorbance vs. phosphate concentration based on a set of Pi standards provided by the supplier assayed along with the samples. All samples were corrected for spontaneous breakdown of ATP observed in a control experiment in the absence of protein. The trypanosomal and human Hsp70s were used at 0.8 μM, and the J-proteins were used at 0.4 μM. An initial screen of the modulatory effects of the compounds on the ATPase activity of the Hsp70s was conducted using 300 μM of the compounds. Compounds identified to have a modulatory effect on the basal and J-protein-stimulated ATPase activity of Hsp70 were used at varying concentrations. The modulatory effect of the selected compounds on the basal and J-protein stimulated ATPase activity of the T. brucei Hsp70s was represented as fold change with the basal and J-protein stimulated ATPase activity of the Hsp70s taken as 1 respectively. These experiments were conducted on three independently purified batches of proteins, but due to limited availability of the selected compounds, each assay was conducted in duplicate on each batch of protein. In control reactions to evaluate the effect of DMSO on basal and J-protein stimulated ATPase activity of the Hsp70s, the solvent was added to a final concentration of 1% (v/v) in the assay. The assays were performed in duplicate on three independently purified batches of proteins.

TbHsp70.4 / Tbj2 = assay: Tbj2-stimulated ATPase activity assay, TbHsp70.4; assay type: biochemical, Trypanosoma brucei; conditions: TbHsp70.4, 150 μM, Figure 5B
Description: as §2

phosphodiesterase-4D = target: phosphodiesterase-4D; design: method as in PMID 24473168; conditions: read-out: IC50 against phosphodiesterase-4D; cited from earlier work
P. falciparum = test system: P. falciparum; design: method as in PMID 21426241; conditions: read-out: IC50 against P. falciparum; cited from earlier work
plasmodial Hsp70s = test system: plasmodial Hsp70s; design: method as in PMID 24854538; conditions: cited from earlier work
human Hsp70 = test system: human Hsp70; design: method as in PMID 24854538; conditions: cited from earlier work
[2] = test system: HeLa (human cervix adenocarcinoma) cells; assay: Resazurin-based cytotoxicity assay on a mammalian cell line; conditions: 20 μM, Figure S2
Description: (§3) HeLa cells were grown and maintained in a culture medium comprised of Dulbecco’s Modified Eagle’s Medium (DMEM) with 5 mM L-glutamine (Lonza, Basel, Switzerland), supplemented with 10% (v/v) heat inactivated foetal bovine serum and antibiotics (penicillin/streptomycin/fungizone-PSF) in a humidified chamber at 37 °C with an atmosphere of 5% CO2. To carry out passaging of cells, cultures were treated with 1% trypsin (w/v) to lift cells, which were then washed in 1 × phosphate buffered saline (PBS) before being re-seeded into culture flasks. For assessment of the cytotoxic effects, the small molecules were added to HeLa cells at a fixed concentration of 20 μM. After an incubation period of 24 h, the number of cells surviving drug exposure were determined using a resazurin-based cytotoxicity assay. The resazurin-based cytotoxicity assay was conducted as previously mentioned. Results were expressed as % cell—the resorufin fluorescence in small molecule-treated wells relative to untreated controls. Assessment of each small molecule was conducted in duplicate, with error bars representing standard deviation (SD).

PfHsp70-1 = test system: PfHsp70-1; design: method as in PMID 21426241; conditions: cited from earlier work
[3] = Resazurin-based cytotoxicity assay on a mammalian cell line; design: species or system human; conditions: human; HeLa cells, 10 μM
Description: as §3

[4] = T. b. brucei parasites, stated as bound, read-out: IC50 values
[5] = Table 1, T. b. brucei parasites cultured in vitro, 48 h, dose-response, read-out: IC50/μM
[6] = Table S1, 48 select compounds, T. b. brucei, 48 h, read-out: IC50/

T1 sequence (P11145 whole entry): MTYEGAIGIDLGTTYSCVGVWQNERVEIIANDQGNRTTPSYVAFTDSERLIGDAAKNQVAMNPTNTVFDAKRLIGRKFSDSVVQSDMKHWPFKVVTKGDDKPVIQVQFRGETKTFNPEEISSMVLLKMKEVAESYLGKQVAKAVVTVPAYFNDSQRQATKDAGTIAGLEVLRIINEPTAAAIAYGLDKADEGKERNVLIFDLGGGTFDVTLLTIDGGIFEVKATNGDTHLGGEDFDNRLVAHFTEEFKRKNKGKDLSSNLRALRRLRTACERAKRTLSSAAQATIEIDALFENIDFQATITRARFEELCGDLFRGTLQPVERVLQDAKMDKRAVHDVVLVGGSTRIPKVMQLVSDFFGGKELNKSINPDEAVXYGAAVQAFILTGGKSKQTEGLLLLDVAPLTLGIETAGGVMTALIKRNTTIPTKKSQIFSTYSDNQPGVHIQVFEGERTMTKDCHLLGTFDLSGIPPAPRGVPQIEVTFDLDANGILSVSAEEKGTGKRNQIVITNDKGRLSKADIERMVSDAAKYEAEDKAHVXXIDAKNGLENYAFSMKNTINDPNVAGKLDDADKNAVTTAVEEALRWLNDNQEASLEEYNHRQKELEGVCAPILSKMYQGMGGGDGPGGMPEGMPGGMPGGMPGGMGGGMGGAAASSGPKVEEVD
T2 sequence (P11145 whole entry): as above

For `C/C(=C\CC/C(C)=C/Cn1cnc2c1c(=O)ncn2C)CC/C=C(\C)CC(=O)CC(C)C` [malonganenone D], the “reduction of c-Met kinase activity” value (c-Met kinase) is given as 2 fold.

With `CC(C)=CCC/C(C)=C/CCC(C)=CCn1cnc2c(cnn2CC=C(C)CC/C=C(\C)CCC=C(C)C)c1=O` [Compound 47, 1,5-Bis((6E)-3,7,11-trimethyldodeca-2,6,10-trien-1-yl)-1,5-dihydro-4H-pyrazolo[3,4-d]pyrimidin-4-one] the IC50 [1, 4] was < 7 µM, the IC50 [1, 5] was 1.2 µM and the IC50 [1, 6] was 1.23 µM. For the same compound, the inhibition at 1 µM (TbHsp70; TbHsp70, 1 μM) was 44%, the “inhibition of basal ATPase activity” value (TbHsp70.4) was 66% and the “effect of order of addition (compound vs Tbj2) on inhibition of J-stimulated ATPase activity” value (TbHsp70 / Tbj2) was “no significant difference”. The “effect of order of addition (compound vs Tbj2) on inhibition of J-stimulated ATPase activity” value (TbHsp70.4 / Tbj2) was “no significant difference”.

For `CC(C)=CC(=O)C/C(C)=C/CC/C(C)=C/CC/C(C)=C/Cn1cnc2c1c(=O)ncn2C` [malonganenone L], the IC50 (phosphodiesterase-4D) is given as 8.5 µM.

In the case of `CNC(=O)c1c(N(C)C=O)ncn1C/C=C(\C)CC/C=C(\C)CCC/C(C)=C\C(=O)C=C(C)C` [malonganenone Q], the IC50 (phosphodiesterase-4D) is listed as 20.3 µM.

In the case of `C/C(=C/C(=O)CC(C)C)CCC/C(C)=C/CC/C(C)=C/Cn1cnc2c1c(=O)ncn2C` [malonganenone A], the IC50 (P. falciparum) is given as 0.81 µM, the “effect on steady-state and J-protein stimulated ATPase activity” value (plasmodial Hsp70s) is given as “inhibited” and the “effect on steady-state and J-protein stimulated ATPase activity” value (human Hsp70) is given as “not that of human Hsp70”.

For `C/C(=C/C(=O)CC(C)C)CCC/C(C)=C/CC/C(C)=C/CNC=O` [malonganenone C], the IC50 (P. falciparum) is listed as 5.2 µM.

For `CC(C)=CCC/C(C)=C/Cn1ccc(=N)n(C/C=C(\C)CCC=C(C)C)c1=O` [Compound 61, 1,3-bis((E)-3,7-dimethylocta-2,6-dien-1-yl)-4-imino-3,4-dihydropyrimidin-2(1H)-one], the “toxicity to HeLa cells” value [2] was “toxic”.

In the case of `CNC(=O)c1c(N(C)C=O)ncn1C/C=C(\C)CC/C=C(\C)CCC/C(C)=C\C(=O)CC(C)C` [malonganenone B], the “activity against PfHsp70-1” value (PfHsp70-1) is given as “dose-dependent”.

In the case of `CC[C@H]1CN2CCc3cc(OC)c(OC)cc3[C@@H]2C[C@@H]1C[C@H]1NCCc2cc(OC)c(OC)cc21` [Emetine, reference compound], the viability at 24 h, 10 µM [3] is reported as 6.03%.

In the case of `CC(C)=CCC/C(C)=C/Cn1ccc(=NC=O)n(C/C=C(\C)CCC=C(C)C)c1=O` [Compound 60, N-(-1,3-Bis((E)-3,7-dimethylocta-2,6-dien-1-yl)-2-oxo-2,3-dihydropyrimidin-4(1H)-ylidene)formamide], the IC50 [1, 4] is reported as < 7 µM, the IC50 [1, 5] is reported as 4.9 µM and the IC50 [1, 6] is reported as 4.89 µM. It also gave an inhibition at 300 µM (TbHsp70; TbHsp70, 300 μM, Figure S6) of 39%.
